Measurements published in patent publication US7524964B2, “Tetrahydrothiopyrano pyrazole cannabinoid modulators” (Janssen Pharmaceutica NV, priority 2005, dated 2009).
pIC50: −log10 of the molar value.

Assays:
human CB-2 receptor = target: T1, human CB-2 receptor (Homo sapiens, UniProt P34972); experiment: Binding assay, cannabinoid CB2 receptor ([3H]-CP-55,940 displacement); conditions: read-out: CB2 binding percent inhibition; for inhibition at 1 µM: test concentration 1 μM (superscript b); for inhibition at 0.2 µM: test concentration 0.2 μM (superscript a)
T1 construct: expressed in transfected cells; host or cells: SK-N-MC cells, pcDNA3 CB-2 (human), semi-purified membranes
T1 sequence (P34972 whole entry): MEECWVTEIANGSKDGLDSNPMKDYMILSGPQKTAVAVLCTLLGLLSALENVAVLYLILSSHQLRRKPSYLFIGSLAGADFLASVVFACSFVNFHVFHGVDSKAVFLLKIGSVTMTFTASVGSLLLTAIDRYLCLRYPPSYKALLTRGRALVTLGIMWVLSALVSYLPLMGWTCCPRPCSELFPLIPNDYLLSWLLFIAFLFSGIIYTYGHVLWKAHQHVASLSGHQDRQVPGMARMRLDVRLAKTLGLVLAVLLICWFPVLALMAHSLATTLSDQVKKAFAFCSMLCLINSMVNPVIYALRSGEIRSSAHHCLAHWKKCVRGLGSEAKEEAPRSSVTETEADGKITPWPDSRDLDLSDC
Experimental: (§1) Binding Assay for CB1 or CB2 Agonists or Inverse Agonists
(§2) The human CB-1 and CB-2 receptors were stably expressed in SK-N-MC cells transfected with pcDNA3 CB-1 (human) or pcDNA3 CB-2 (human). The cells were grown in T-180 cell culture flasks under standard cell culture conditions at 37° C. in a 5% CO2 atmosphere. The cells were harvested by trypsinization and homogenized in a homogenization buffer (10 mM Tris, 0.2 mM MgCl2, 5 mM KCl, with protease inhibitors aprotinin, leupeptin, pepstatin A and bacitracin) and centrifuged (2000 g). The supernatant was then centrifuged in 2M sucrose (31,300 g) to produce a semi-purified membrane pellet. The pellet was resuspended in homogenization and store at −80° C.
(§3) On the day of the assay, the pellet was thawed on ice and diluted in assay buffer (50 mM Tris-HCl, 5 mM MgCl2, 2.5 mM EDTA, 0.5 mg/mL fatty acid free bovine serum albumin, pH 7.5). The diluted membrane was added with buffer, test compound or standard and the radioligand [H]^3+-CP-55,940_(0.2 nM) to the wells of a 96-well polypropylene plate. Non-specific binding was measured in wells containing 10 uM WIN 55,212. The plate was covered and incubated for 90 minutes at 30° C. The contents were then aspirated onto a Packard Unifilter G/C filter bottom plate prewet with 0.5% polyethyleneimine. The wells of the polypropylene plate were rinsed and aspirated seven times with a 0.9% saline-0.5% Tween 20 solution. The Unifilter plate was dried, a scintillation cocktail was added to each well and the counts representing binding were quantitated in a TopCount scintillation counter.
(§4) The IC50 binding values for compounds tested were calculated by linear regression and were obtained from studies in which varying compound concentrations were used. Where an IC50 was not obtained, test results are provided as percent inhibition at a test concentration of ^a0.2 μM, ^b1 μM or ^c10 μM.

human CB1 receptor = human CB1 receptor (Homo sapiens, UniProt P21554); experiment: Binding assay, cannabinoid CB1 receptor ([3H]-CP-55,940 displacement); set-up: expressed in transfected cells; host or cells: SK-N-MC cells, pcDNA3 CB-1 (human), semi-purified membranes; conditions: for inhibition at 1 µM: test concentration 1 μM (superscript b); for inhibition at 0.2 µM: test concentration 0.2 μM (superscript a)
human CB1 receptor, sequence (P21554 whole entry): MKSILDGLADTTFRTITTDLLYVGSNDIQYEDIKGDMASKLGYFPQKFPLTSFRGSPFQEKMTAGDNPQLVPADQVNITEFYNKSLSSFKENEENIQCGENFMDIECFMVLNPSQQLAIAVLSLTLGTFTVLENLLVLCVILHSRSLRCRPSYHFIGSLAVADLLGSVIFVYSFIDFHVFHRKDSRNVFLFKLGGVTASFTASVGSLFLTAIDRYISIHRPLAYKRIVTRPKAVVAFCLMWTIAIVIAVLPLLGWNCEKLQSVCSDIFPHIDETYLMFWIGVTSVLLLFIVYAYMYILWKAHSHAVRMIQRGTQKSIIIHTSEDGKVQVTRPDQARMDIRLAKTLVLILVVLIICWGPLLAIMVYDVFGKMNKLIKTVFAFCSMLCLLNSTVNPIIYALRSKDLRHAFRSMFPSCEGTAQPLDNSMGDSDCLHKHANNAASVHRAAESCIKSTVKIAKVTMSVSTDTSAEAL
Experimental: as §1, §2, §3, §4

[1] = read-out: CB1 binding percent inhibition

Row | Compound | inhibition at 0.2 µM (human CB-2 receptor) | pIC50 (human CB1 receptor) | inhibition at 0.2 µM (human CB1 receptor; [1]) | further results
1 | CC(NS(=O)(=O)/C=C/c1c2c(nn1Cc1ccccc1)CC[S+]([O-])C2)c1ccccc1 (centres unmarked) [Cpd 22, (E)-2-(2-benzyl-5-oxo-4,5,6,7-tetrahydro-2H-5λ^4-thiopyrano[4,3-c]pyrazol-3-yl)-ethenesulfonic acid (1-phenyl-ethyl)-amide] |  |  |  | inhibition at 1 µM (human CB-2 receptor): 0%; inhibition at 10 µM (human CB-2 receptor; test concentration 10 μM (superscript c)): 2%; inhibition at 1 µM (human CB1 receptor; [1]): 11%; inhibition at 10 µM (human CB1 receptor; test concentration 10 μM (superscript c), read-out: CB1 binding percent inhibition): 0%
2 | C[C@@H](NC(=O)c1nn(-c2ccc(Cl)cc2Cl)c2c1CS(=O)(=O)C/C2=C\c1ccc(Cl)o1)C1CCCCC1 [Cpd 118, (7Z)-7-(5-chloro-furan-2-ylmethylene)-1-(2,4-dichloro-phenyl)-5,5-dioxo-4,5,6,7-tetrahydro-1H-5λ^6-thiopyrano[4,3-c]pyrazole-3-carboxylic acid [(1R)-1-cyclohexyl-ethyl]-amide] | 11% | 8.10 |  | 
3 | O=C(NN1CC2CCCC2C1)c1nn(-c2ccc(Cl)cc2)c2c1CS(=O)(=O)C/C2=C\c1ccc(F)cc1 (centres unmarked) [Cpd 97, (7Z)-1-(4-chloro-phenyl)-7-(4-fluoro-benzylidene)-5,5-dioxo-4,5,6,7-tetrahydro-1H-5λ^6-thiopyrano[4,3-c]pyrazole-3-carboxylic acid (hexahydro-cyclopenta[c]pyrrol-2-yl)-amide] | 8% | 7.17 |  | 
4 | C[C@H](NC(=O)c1c2c(nn1-c1ccc(Cl)cc1Cl)/C(=C/c1ccc(F)cc1)CS(=O)(=O)C2)c1ccccc1 [Cpd 86, (7Z)-2-(2,4-dichloro-phenyl)-7-(4-fluoro-benzylidene)-5,5-dioxo-4,5,6,7-tetrahydro-2H-5λ^6-thiopyrano[4,3-c]pyrazole-3-carboxylic acid [(1S)-1-phenyl-ethyl]-amide] | 14% | 7.68 |  | 
5 | C[C@@H](NS(=O)(=O)/C=C/c1c2c(nn1Cc1ccccc1)CCS(=O)(=O)C2)C1CCCCC1 [Cpd 16, (E)-2-(2-benzyl-5,5-dioxo-4,5,6,7-tetrahydro-2H-5λ^6-thiopyrano[4,3-c]pyrazol-3-yl)-ethenesulfonic acid [(1R)-1-cyclohexyl-ethyl]-amide] |  |  |  | inhibition at 1 µM (human CB-2 receptor): 0%; inhibition at 1 µM (human CB1 receptor; [1]): 0%
6 | O=C(NN1CCCCC1)c1nn(-c2ccc(Cl)cc2)c2c1CS(=O)(=O)C/C2=C\c1ccc(F)cc1 [Cpd 99, (7Z)-1-(4-chloro-phenyl)-7-(4-fluoro-benzylidene)-5,5-dioxo-4,5,6,7-tetrahydro-1H-5λ^6-thiopyrano[4,3-c]pyrazole-3-carboxylic acid piperidin-1-ylamide] | 12% |  | 66% | 
7 | O=S1(=O)Cc2c(/C=C/S(=O)(=O)NN3CCOCC3)nn(-c3ccc(F)cc3F)c2C(Cc2cccc(F)c2)C1 (centres unmarked) [Cpd 44, (E)-2-[1-(2,4-difluoro-phenyl)-7-(3-fluoro-benzyl)-5,5-dioxo-4,5,6,7-tetrahydro-1H-5λ^6-thiopyrano[4,3-c]pyrazol-3-yl]-ethenesulfonic acid morpholin-4-ylamide] | 9% |  | 3% | 
8 | C[C@H](NC(=O)c1nn(-c2ccc(Cl)cc2Cl)c2c1CS(=O)(=O)C/C2=C\c1ccc(F)cc1)c1ccccc1 [Cpd 65, (7Z)-1-(2,4-dichloro-phenyl)-7-(4-fluoro-benzylidene)-5,5-dioxo-4,5,6,7-tetrahydro-1H-5λ^6-thiopyrano[4,3-c]pyrazole-3-carboxylic acid [(1S)-1-phenyl-ethyl]-amide] | 17% | 8.30 |  | 
9 | C[C@H](NS(=O)(=O)/C=C/c1nn(-c2ccc(F)cc2F)c2c1CS(=O)(=O)CC2Cc1cccc(F)c1)c1ccccc1 (stereo partly drawn) [Cpd 42, (E)-2-[1-(2,4-difluoro-phenyl)-7-(3-fluoro-benzyl)-5,5-dioxo-4,5,6,7-tetrahydro-1H-5λ^6-thiopyrano[4,3-c]pyrazol-3-yl]-ethenesulfonic acid [(1S)-1-phenyl-ethyl]-amide] | 20% |  | 31% | 
